According to patent US11352370B2, “Mutant KRAS inhibitors” (H. LEE MOFFITT CANCER CENTER AND RESEARCH INSTITUTE, INC., priority 2015, dated 2022):

Biological target: mt G12D KRas (Homo sapiens, UniProt P01116, G12D)
Experiment: Mant-GDP assay (inhibition of GTP displacing mant-GDP)
Format: binding
Details: for displacing mant-GDP from mt G12D KRas (in words): assay optimization, FIG. 1A

Sequence of mt G12D KRas (P01116 1-188 isoform P01116-2 G12D): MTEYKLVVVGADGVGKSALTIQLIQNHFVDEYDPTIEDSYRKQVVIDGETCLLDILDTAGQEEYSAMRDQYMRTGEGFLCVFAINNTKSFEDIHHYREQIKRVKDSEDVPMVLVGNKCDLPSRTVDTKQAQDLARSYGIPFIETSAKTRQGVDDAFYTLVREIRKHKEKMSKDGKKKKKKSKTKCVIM

SMILES	displacing mant-GDP from mt G12D KRas (in words)	IC50 (GTP titration in the absence of compounds, FIG. 3C, read-out: IC50 of GTP to displace mant-GDP) [nM]
Nc1nc2c(ncn2[C@@H]2O[C@H](COP(=O)(O)OP(=O)(O)O)[C@@H](O)[C@H]2O)c(=O)[nH]1 [GDP]	very effective	–
Nc1nc2c(ncn2[C@@H]2O[C@H](COP(=O)(O)OP(=O)(O)OP(=O)(O)O)[C@@H](O)[C@H]2O)c(=O)[nH]1 [GTP]	very effective	620
